# Results as given in patent US12264175B2, “Compositions and methods for capping RNAS” (Verve Therapeutics, Inc., priority 2020, dated 2025).
# Biological target: T7 RNA polymerase (Escherichia phage T7, UniProt P00573)
# Assay: One-pot IVT preparation of 5′ capped mRNA (production yield, full-length purity)
# Type: biochemical
# Description: The 5′ end initiator, 1007a, (FIG. 1A) was used to prepare capped mRNAs that encode for ABE and luciferase proteins. In this Example and for all others described herein, the ABE mRNA sequence was MA004 (SEQ. 0001) and the luciferase mRNA sequence was the Photinus pyralis (Firefly) luciferase sequence described in NCBI reference sequence XM_031473197.1. These mRNA can be produced by different methods well known in the art. One of such methods used herein was in vitro transcription (IVT) using T7 polymerase; or in other embodiments, additional RNA polymerase variants. This IVT reaction to produce mRNA used a linearized DNA template that comprised a T7 polymerase promoter and associated regulatory sequences, mRNA coding sequence (CDS), 3′ and 5′ untranslated regions (UTRs), poly A tail, and additional sequence elements to facilitate and modulate mRNA stability and in vivo performance. Prior to IVT, the DNA template was in the form of a plasmid; in other embodiments the DNA template is in the form of a PCR product, synthetic DNA product, or any other double-stranded DNA construct. Linearization of the DNA template with a restriction digestion enzyme was performed in order to promote run-off transcription. The typical IVT reaction included T7 polymerase, DNA template, RNase inhibitor, cap analog, inorganic pyrophosphatase, and the naturally occurring ribonucleoside triphosphates (NTPs) such as GTP, ATP, CTP, and N1-methyl pseudouridine triphosphosphate; in some embodiments NTPs include UTP or modified NTPs such as pseudouridine, 5′methyl cytidine, 5-methoxy uridine, N6-methyl adenosine, and N4-acetyl cytidine. The 1007a 5′ end initiator was added to the IVT reaction along with ATP, GTP, CTP, and N1-methyl pseudouridine triphosphate at a 1:1 initiator-to-NTP molar ratio and additional ratios described in Example 5 (B). Poly A tail was encoded in the DNA template that was added to the mRNA during transcription; in some instances, poly A tail is added to the mRNA after the IVT reaction using an RNA ligase enzyme. Finally, T7 RNA polymerase was added to the mixture and the IVT reaction was run at 37° C. for about 1-4 hours. After IVT, DNase was added to the transcription mixture to remove DNA template; in some instances, residual DNA is removed with chromatography. This mRNA was purified to remove residual reaction products and impurities, and stored in 1 mM citrate buffer. Characterization of production yield and mRNA full-length purity was performed by UV spectrometry and capillary gel electrophoresis methods, which are known in the art. […] Similar IVT and purification process are used to produce mRNA encoding SpCas9, Cas12b, CBE, and other ABEs; in all cases the DNA template, reaction conditions, and purification parameters are optimized for the specific gene of interest.
# Similarly, ABE encoding mRNA with 5′ end region, 1107a, (FIG. 1B) was produced and characterized as described in the paragraph above.
# Chain of T7 RNA polymerase (P00573 whole entry): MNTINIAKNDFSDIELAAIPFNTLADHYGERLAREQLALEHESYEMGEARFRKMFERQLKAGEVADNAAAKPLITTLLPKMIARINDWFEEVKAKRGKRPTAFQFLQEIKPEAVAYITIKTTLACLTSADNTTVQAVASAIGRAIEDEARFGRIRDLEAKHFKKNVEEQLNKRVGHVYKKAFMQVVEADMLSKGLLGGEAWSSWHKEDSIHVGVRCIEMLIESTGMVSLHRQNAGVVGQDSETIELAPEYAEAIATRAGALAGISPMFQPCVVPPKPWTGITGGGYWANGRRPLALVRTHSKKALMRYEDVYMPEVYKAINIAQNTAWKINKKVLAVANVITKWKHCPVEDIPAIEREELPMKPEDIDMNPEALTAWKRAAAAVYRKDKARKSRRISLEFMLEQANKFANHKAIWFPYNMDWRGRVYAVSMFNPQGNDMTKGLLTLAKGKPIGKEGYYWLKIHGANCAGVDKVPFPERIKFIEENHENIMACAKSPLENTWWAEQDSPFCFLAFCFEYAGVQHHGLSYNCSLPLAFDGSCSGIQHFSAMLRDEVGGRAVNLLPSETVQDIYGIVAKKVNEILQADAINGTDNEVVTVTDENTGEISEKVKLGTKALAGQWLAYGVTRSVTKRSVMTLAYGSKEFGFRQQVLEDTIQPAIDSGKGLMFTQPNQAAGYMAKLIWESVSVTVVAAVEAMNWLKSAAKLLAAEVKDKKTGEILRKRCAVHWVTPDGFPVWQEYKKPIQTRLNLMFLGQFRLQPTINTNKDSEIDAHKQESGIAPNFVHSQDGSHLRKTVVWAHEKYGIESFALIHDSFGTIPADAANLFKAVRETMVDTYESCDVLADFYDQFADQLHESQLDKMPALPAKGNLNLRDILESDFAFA
compound,measurement,setting,value
"COC1C(OP([O-])(=S)OCC2OC(n3cnc4c(=O)[nH]c(N)nc43)C(O)C2O)C(COP(=O)(O)OP(=O)(O)OP(=O)(O)OCC2OC(n3c[n+](C)c4c(=O)[nH]c(N)nc43)C(O)C2O)OC1n1cnc2c(N)ncnc21 (stereo not drawn) [1007a, m^7G(ppp)Am(ps)G]",final production yield of mRNA,"ABE encoding mRNA made with the 5′ end initiator, T7 IVT, FIG. 2",about 3.3 mg per 1 ml of IVT reaction
same,mRNA full-length purity,"ABE encoding mRNA made with the 5′ end initiator, capillary gel electrophoresis, FIG. 3",about 88%
same,amount of full-length mRNA produced,"initiator-to-NTP ratio ranging from 1:1 down to 1:5, FIG. 3",did not reduce
